Patent US8278482B2, “Antimicrobial N-chlorinated compositions” (priority 2008, dated 2012)
Like-named read-outs stand apart in the source and are kept apart here.

How the values were obtained:
Format in all cases: cell-based
[1] = tested on: Escherichia coli (ATCC 25922); test: Antimicrobial activity (MBC), E. coli ATCC 25922
Method: (§1) To determine antimicrobial activity, Escherichia coli (ATCC 25922), Staphylococcus aureus (ATCC 29213), Pseudomonas aeruginosa (ATCC 27853), and Candida albicans (ATCC 10231) were used in primary screening. In addition, Escherichia coli (MCC 80392), Staphylococcus aureus (MCC 91731), Pseudomonas aeruginosa (MCC 4438), and Candida albicans (MCC 50319), provided by Alcon Laboratories, Fort Worth, Tex., were used. The microbial cultures were diluted in sterile saline pH 4 to prepare inocula. Test compounds were titrated by stepwise two-fold dilutions in sterile saline pH 4. A total of 1.0×10^5 to 1.0×10^6 Colony Forming Units (CFU)/mL microbe was added to each tube, mixed by gentle vortexing, and then incubated at room temperature for 1 h. Microbial plating on Petri dishes (Tryptic Soy agar or Saboraud's Dextrose agar) was performed immediately after the designated exposure after neutralization of the test article dilutions in Dey-Engley Broth. Plates were incubated at 37° C., and the numbers of microbes were counted by direct colony count to quantitate the surviving microbes as CFU/mL. Positive growth controls were made with sterile 0.9% saline. Compounds were dissolved in unbuffered isotonic saline (SAL) or phosphate buffered saline (PBS) at pH 4 or pH 7 (using HCl and/or NaOH as needed). All compounds were tested three times. The results are tabulated to show the comparison of antimicrobial effectiveness range of the compounds.
(§2) Data shown are the Minimum Bactericidal Concentration (MBC) or Minimum Fungicidal Concentration (MFC) (≧99.9% kill) in μg/mL.

[2] = tested on: Staphylococcus aureus (ATCC 29213); test: Antimicrobial activity (MBC), S. aureus ATCC 29213
Method: as §1, §2

[3] = tested on: Candida albicans (ATCC 10231); test: Antimicrobial activity (MFC), C. albicans ATCC 10231; conditions: ATCC10231, C. albicans ATCC 10231, pH 4 (Sal), 1 h exposure at room temperature, read-out: Minimum Fungicidal Concentration (MFC) (≧99.9% kill)
Method: as §1, §2

[4] = tested on: mouse fibroblast cells (ATCC CCL-1, L929); test: Cytotoxicity, WST-8 colorimetric assay; conditions: 60 min exposure
Method: Cytotoxicity was assessed by a colorimetric assay system using the Dojindo™ cell counting kit containing 2-(2-methoxy-4-nitrophenyl)-3-(4-nitrophenyl)-5-(2,4-disulfophenyl)-2H-tetrazolium, monosodium salt (WST-8). In this assay, the WST-8 reagent was bioreduced by cellular dehydrogenases to a formazan product that is highly soluble in tissue culture medium.
In a standard assay, mouse fibroblast cells (ATCC CCL-1, L929), were cultured in Minimum Essential Medium, α-medium supplemented with 10% heat inactivated fetal bovine serum, L-glutamine, penicillin and streptomycin. Cells were trypsinized and counted under the microscope and seeded at 1.5×10^4 total cells per 100 μL per well of a flat-bottom 96-well plate in order to achieve ˜80% confluence after overnight incubation at 37° C. On the day of the assay, the tissue culture medium was removed and replaced with 30 μL of fresh medium.
Test articles were prepared as 2-fold serial dilutions and 170 μL of each dilution is added into each of 4-wells (total volume per well=200 μL). The test plate was then returned to the 37° C. incubator for 60 min. Immediately after the exposed time, test article from each well was replaced with 200 μL of fresh media. Plates were incubated at 37° C. for 18-20 hours. The following day growth medium was replaced with 100 μL/well of fresh medium containing 10 μL WST-8 reagent. Cells were incubated under growth conditions (5% CO2 at 37° C. humidified incubator), protected from light, until color development was achieved (usually 1-4 hours). Absorbance was read at 450 nm with reference wavelength at 750 nm using Molecular Device SpectraMax M5 plate reader. Untreated or vehicle only treated cells receiving WST-8 reagent served as positive cell proliferation controls.
The absorbance A450/750 from each well of untreated cells and from each well within the dilution series was measured. […] Next, a non-linear regression (curve fit) analysis was performed on all the absorbance data measured from the dilution series, including the absorbance data obtained from wells of the untreated control cells. For each dilution within the dilution series, an average A450/750 was calculated from the four replicate wells.

[5] = ATCC25922, E. coli ATCC 25922, pH 4 (Sal), 1 h exposure at room temperature, read-out: Minimum Bactericidal Concentration (MBC) (≧99.9% kill)
[6] = ATCC29213, S. aureus ATCC 29213, pH 4 (Sal), 1 h exposure at room temperature, read-out: Minimum Bactericidal Concentration (MBC) (≧99.9% kill)
[7] = ATCC25922, E. coli ATCC 25922, pH 7 (PBS), 1 h exposure at room temperature, read-out: Minimum Bactericidal Concentration (MBC) (≧99.9% kill)

Row | Structure (SMILES) | MBC ([1]; ATCC25922, 1 h, pH 4, read-out: Minimum Bactericidal Concentration (MBC) (≧99.9% kill)) [µg/mL] | MBC ([2]; ATCC29213, 1 h, pH 4, read-out: Minimum Bactericidal Concentration (MBC) (≧99.9% kill)) [µg/mL] | MFC [3] [µg/mL] | MBC [1, 5] [µg/mL] | CT50 (concentration that results in survival of 50% of the cells) ([4]; pH 4 (Sal)) [mM] | MBC [2, 6] [µg/mL] | MBC [1, 7] [µg/mL] | CT50 (concentration that results in survival of 50% of the cells) ([4]; pH 4 (Acetate)) [mM] | CT50 (concentration that results in survival of 50% of the cells) ([4]; pH 7 (PBS)) [mM]
1 | CCCC[N+](C)(CCCC)CCC(C)(C)N(Cl)Cl [Compound 21-48, N,N-Dibutyl-3-(dichloroamino)-N-3-dimethylbutan-1-aminium chloride] | 16 | 4 |  |  |  |  |  |  | 
2 | CC(C)(CCS(=O)(=O)CCC[N+](C)(C)C)N(Cl)Cl.[Cl-] [Compound 21-112, S-3-(3-(Dichloroamino)-3-methylbutylsulfonyl)-N,N,N-trimethylpropan-1-ammonium chloride] |  |  | 32 | 8 | 1.4 | 2 |  |  | 
3 | CC(C)(CC[N+]1(C)CCCC1)N(Cl)Cl.[Cl-] [Compound 21-130, 1-(3-(Dichloroamino)-3-methylbutyl)-1-methylpyrrolidinium chloride] |  |  | 32 | 4 |  | 2 |  |  | 
4 | CC(C)(C[N+](C)(C)CCS(=O)(=O)O)N(Cl)Cl.[Cl-] [Compound 21-90, 2-(Dichloroamino)-N,N-2-trimethyl-N-(2-sulfoethyl)propan-1-ammonium chloride] |  |  | 128 | 64 |  | 16 |  |  | 
5 | CN(CC[N+](C)(C)C)C(=O)CC(C)(C)N(Cl)Cl.[Cl-] [Compound 21-14, 2-(3-(Dichloroamino)-N,3-dimethylbutanamido)-N,N,N-trimethylethanaminium chloride] |  |  | 32 | 16 |  | 2 | 256 |  | 
6 | CC(C)(CC[N+]1(C)CCC(F)(F)CC1)N(Cl)Cl.[Cl-] [Compound 21-116, 1-(3-(Dichloroamino)-3-methylbutyl)-4,4-difluoro-1-methylpiperidinium chloride] |  |  | 32 | 4 | 3.0 | 2 |  |  | 
7 | CC1(C)CC[N+](C)(CCC(C)(C)N(Cl)Cl)CC1.[Cl-] [Compound 21-122, 1-(3-(Dichloroamino)-3-methylbutyl)-1,4,4-trimethylpiperidinium chloride] |  |  |  | 16 |  | 4 |  | 1.0 | 
8 | CC(C)(CC[N+]1(C)CCCCCC1)N(Cl)Cl.[Cl-] [Compound 21-118, 1-(3-(Dichloroamino)-3-methylbutyl)-1-methylazepanium chloride] |  |  | 16 | 4 | 0.9 | 4 |  |  | 
9 | CC(C)(CC[N+](C)(C)CC(F)(F)F)N(Cl)Cl.[Cl-] [Compound 21-132, 3-(Dichloroamino)-N,N,3-trimethyl-N-(2,2,2-trifluoroethyl)butan-1-ammonium chloride] |  |  | 32 | 4 |  | 2 |  |  | 
10 | CC(C)(CC[N+]12CCC(CC1)CC2)N(Cl)Cl [Compound 21-120, 1-(3-(Dichloroamino)-3-methylbutyl)-1-azoniabicyclo[2.2.2]octane methanesulfonate] |  |  | 32 | 8 |  | 2 |  | 1.3 | 
11 | CCCC[N+](C)(C)CCC(C)(C)N(Cl)Cl.[Cl-] [Compound 21-124, N-Butyl-3-(dichloroamino)-N,N,3-trimethylbutan-1-ammonium chloride] |  |  | 64 | 8 |  | 2 |  | 1.0 | 
12 | CC(C)(CC(=O)OCC[N+]1(C)CCCCC1)N(Cl)Cl.[Cl-] [Compound 21-93, 1-(2-(3-(Dichloroamino)-3-methylbutanoyloxy)ethyl)-1-methylpiperidinium chloride] |  |  |  | 4 |  | 2 | 512 |  | 
13 | CC[N+](C)(C)CCC(C)(C)N(Cl)Cl.[Cl-] [Compound 21-134, 3-(Dichloroamino)-N-ethyl-N,N,3-trimethylbutan-1-ammonium chloride] |  |  |  |  |  |  |  | 1.4 | 
14 | CC(C)(CC[N+](C)(C)CCC[N+](C)(C)C)N(Cl)Cl.[Cl-].[Cl-] [Compound 21-128, N^1-(3-(Dichloroamino)-3-methylbutyl)-N^1,N^1,N^3,N^3,N^3-pentamethylpropane-1,3-diammonmium chloride] |  |  | 128 | 16 |  | 4 |  | 1.3 | 
15 | CC(=O)N1CC[N+](C)(CC(C)(C)N(Cl)Cl)CC1.[Cl-] [Compound 21-110, 4-Acetyl-1-(2-(dichloroamino)-2-methylpropyl)-1-methylpiperazin-1-ium chloride] |  |  | > 1020 | 64 | 0.9 | 16 |  |  | 
16 | CC(C)(c1cn(CC[N+](C)(C)C)nn1)N(Cl)Cl.[Cl-] [Compound 21-92, 2-(4-(2-(Dichloroamino)propan-2-yl)-1H-1,2,3-triazol-1-yl)-N,N,N-trimethylethanaminium chloride] |  |  | 32 | 8 |  | 4 |  |  | 
17 | CC(C)(CCC[N+](C)(C)C)N(Cl)Cl.[Cl-] [Compound 21-108] |  |  | 256 | 8 |  | 2 |  |  | 
18 | CC(C)(CC[N+](C)(C)C1CCCCC1)N(Cl)Cl.[Cl-] [Compound 21-126, N-(3-(Dichloroamino)-3-methylbutyl)-N,N-dimethylcyclohexanammonium chloride] |  |  | > 1020 | 16 |  | 4 |  | 0.6 | 
19 | CC(C)(CCC[P+](C)(C)C)N(Cl)Cl.[Cl-] [Compound 21-106, (4-(Dichloroamino)-4-methylpentyl)trimethylphosphonium chloride] |  |  | > 256 | 4 |  | 2 |  |  | 
20 | CCCCCCCCCCCC[N+](C)(C)CCC(C)(C)N(Cl)Cl [Compound 21-138, N-(3-(Dichloroamino)-3-methylbutyl)-N,N-dimethyldodecan-1-ammonium chloride] |  |  |  |  |  |  |  | 0.5 | 
21 | CC(C)(CCS(=O)(=O)CC[N+](C)(C)C)N(Cl)Cl.[Cl-] [Compound 21-02, 2-(3-(Dichloroamino)-3-methylbutylsulfonyl)-N,N,N-trimethylethanammonium chloride] |  |  | 32 | 8 | <0.03 | 2 |  |  | 
22 | C[S+](C)CC(C)(C)N(Cl)Cl.[Cl-] [Compound 21-86, (2-(Dichloroamino)-2-methylpropyl)dimethylsulfonium chloride] |  |  | 128 | 8 |  | 4 |  |  | 0.6
23 | CC(C)(C[N+]1(C)CCCCC1)N(Cl)Cl.[Cl-] [Compound 21-78, 1-(2-(dichloroamino)-2-methylpropyl)-1-methylpiperidinium chloride] |  |  | 64 | 16 |  | 8 |  |  | 
